In US12378210B2, “Pharmaceutical composition comprising tizoxanide and pharmaceutical use thereof” (BEIJING JUNKE HUAYUAN MED TECH CO., LTD., priority 2020, dated 2025):
Values joined by “and” are separate entries in the source; they are usually repeats but may differ in a detail not shown here. Equal entries are not always repeated. Structures can show the parent of a compound that is named as a salt. Where two headings read alike, the source gives them in different places.

Assays:
[1] = parameters: species or system SD rats; conditions: male, SD, rat, in vivo, po
Protocol: 34.75 mg of nitazoxanide was added to 10 mL of 0.5% sodium carboxymethylcellulose solution, and the mixture was mixing homogeneously for later use; 41.67 mg of tizoxanide choline salt of formula (I) prepared in Example 2 was added to 10 mL of 0.5% sodium carboxymethylcellulose solution, and the mixture was mixed homogeneously for later use; 30 mg of tizoxanide was added to 5 mL of 0.5% sodium carboxymethylcellulose solution, followed by addition of 40% aqueous choline hydroxide solution, and the mixture was mixed homogeneously, and then added with 0.5% sodium carboxymethyl cellulose solution to a final volume of 10 mL to obtain a mixture of tizoxanide and choline for later use. […] Provided were male SD rats weighing 180 g to 220 g, 3 rats each group; all animals were fasted for 12 h prior to administration. The rats were separately administered intragastrically with the solution of the nitazoxanide, the solution of the tizoxanide choline salt of formula (I) or the mixture of tizoxanide and choline described above at a dose of 10 mL/kg each. […] The collected blood was added with sodium heparin for anticoagulation, followed by centrifugation to separate plasma, and the plasma was storing at −80° C. for determination. The content of tizoxanide in plasma was determined by LC-MS/MS (instrument: LC-MS/MS-19, TQ5500 Triple quad); internal Standard (IS) was tolbutamide; mass spectrum conditions: an electrospray ion source and a negative ion multiple reaction detection (Tizoxanide: […] ACQUITY UPLC CORTECS T3, 2.7 μm (2.1×100 mm); column temperature was 40° C.; flow rate was 0.6 mL/min. The pharmacokinetic parameters were calculated by utilizing WinNonlin according to the plasma concentration data at different time points. The results are shown in Table 1: […]

[2] = tested on: influenza A virus mouse lung adaptive strain A/PR/8/34; type: in vivo, Kunming mice
DHBV = assay: Evaluation of in vivo anti-hepatitis B virus effect (serum DHBV DNA, dot-blot hybridization); parameters: species or system sheld ducks (Tadorna); conditions: intragastric once daily
Protocol: The sheld ducks (Tadorna) with vertical transmission infection and positive DHBV DNA were randomly grouped, 8 sheld ducks each group. […] Blood was collected intravenously prior to administration (T0) and 7 days (T7), 14 days (T14), 21 days (T21) and 28 days ([…]) after administration, and the serum was separated and frozen at -70° C. for determination. Determination of DHBV DNA content in serum by using dot-blot molecular hybridization was as follows: the duck serum described above was taken, spots were simultaneously formed on detection films for each batch, the change of the DHBV DNA level in the duck serum was determined, the DHBV DNA probe was labeled by ^32P according to the method of the instruction of the nick translation kit, and a duck serum dot-blot experiment was performed.

[3] = in vivo, po; cited from earlier work
[4] = 200 mg/kg active ingredient basis, T0 (prior to administration)
[5] = 200 mg/kg active ingredient basis, T7 (7 days)
[6] = 200 mg/kg active ingredient basis, T14 (14 days)
[7] = 200 mg/kg active ingredient basis, T21 (21 days)
[8] = 200 mg/kg active ingredient basis, T28 (28 days)

| Structure (SMILES) | AUC(0-t) [1] [ng·h/mL] | AUC(0-∞) [1] [ng·h/mL] | Cmax [1] [ng/mL] | T1/2 [1] [h] | Tmax [1] [h] | Survival rates ([2]; mouse, in vivo) | OD490 value (DHBV; 100 mg/kg active ingredient basis, T0 (prior to administration)) | OD490 value (DHBV; 100 mg/kg active ingredient basis, T7 (7 days)) | OD490 value (DHBV; 100 mg/kg active ingredient basis, T14 (14 days)) | OD490 value (DHBV; 100 mg/kg active ingredient basis, T21 (21 days)) | OD490 value (DHBV; 100 mg/kg active ingredient basis, T28 (28 days)) | OD490 value (DHBV; [4]) | OD490 value (DHBV; [5]) | OD490 value (DHBV; [6]) | OD490 value (DHBV; [7]) | OD490 value (DHBV; [8]) | Survival rates ([2]; 50 mg/kg active ingredient basis, intragastric 2 times daily for 5 days, […], observed 14 days) | Survival rates ([2]; 100 mg/kg active ingredient basis, intragastric 2 times daily for 5 days, […], observed 14 days) | original form of nitazoxanide in blood [3] |
| --- | --- | --- | --- | --- | --- | --- | --- | --- | --- | --- | --- | --- | --- | --- | --- | --- | --- | --- | --- |
| O=C(Nc1ncc([N+](=O)[O-])s1)c1ccccc1O [Tizoxanide choline salt of formula (I), tizoxanide choline salt] | 2070.01 | 2280.30 | 837.16 | 2.53 | 0.25 | 9/10 and 3/10 | 1.47 ± 0.20 | 0.43 ± 0.18**ΔΔ | 0.39 ± 0.34**ΔΔ | 0.34 ± 0.25**ΔΔ | 0.53 ± 0.37**ΔΔ | 0.96 ± 0.47 | 0.15 ± 0.08**ΔΔ | 0.10 ± 0.05**ΔΔ | 0.07 ± 0.04**ΔΔ | 0.27 ± 0.17**ΔΔ | – | – | – |
| CC(=O)Oc1ccccc1C(=O)Nc1ncc([N+](=O)[O-])s1 [Nitazoxanide, o-N-(5-nitrothiazol-2-yl)carbamoyl-phenol-acetate, reference compound] | 1325.50 | 1327.91 | 380.55 | 0.65 | 2.00 | – | – | – | – | – | – | 1.67 ± 0.11 | 1.37 ± 0.27 | 1.19 ± 0.51 | 0.72 ± 0.38**ΔΔ | 0.72 ± 0.48**ΔΔ | 2/10 | 7/10 | undetectable |
